Assay results published in patent US11647751B2, “Use of phosphorus containing herbicides as desiccant for plants of the genus Saccharum” (BASF SE, priority 2013, dated 2023).

Tested on: Saccharum officinarum plants
Experiment: Field trial: desiccation of sugarcane leaves after application of diluted glufosinate-ammonium compositions
Assay type: in vivo
Settings: growth stage BBCH 49 (approx. 300 cm), evaluation 2 weeks after application
Protocol: The compositions described in the table above were diluted with water and applied to a field of Saccharum officinarum plants at growth stage BBCH 49 (approximately 300 cm growth height; corresponding to about 2 weeks before harvest), such that the amount of glufosinate ammonium was 800 g/ha or 1000 g/ha, respectively.

SMILES: CP(=O)(O)CCC(N)C(=O)O (centres unmarked) [glufosinate ammonium, 2-amino-4-[hydroxy(methyl)phosphinoyl]butanoic acid]
- desiccation of sugarcane leaves (800 g/ha glufosinate ammonium): 54%
- desiccation of sugarcane leaves (1000 g/ha glufosinate ammonium): 60%
